Results on five compounds are retold here after patent US20060110401A1, “Mixture of peptides from c and ns3 proteins of the hepatitis c virus and applications thereof” (priority 2002, published 2006).

Read-outs that look alike come from different tables or passages of the source.

For test [1], the system named is CD4+ T lymphocyte lines derived from a seronegative individual. The experiment in a line: IFN-γ ELISPOT after in vitro immunization. The test is classed as cell-based, human. The settings on record: after 4 restimulations; for response of line P014/C (T lymphocytes secreting IFN-γ): FIG. 5C. How it is done: The ability of the peptides having good affinity for the HLA II molecules to induce stimulation of specific T lymphocytes in vitro was evaluated using blood samples from individuals seronegative for HCV. This involves evaluating the ability to recruit CD4+ precursor lymphocytes although they are, in a naïve individual, at very low frequency, i.e. to carry out an immunization in vitro by means of these peptides.
Peripheral blood mononuclear cells (PBMCs) were separated on a Ficoll gradient. The PBMCs were then cultured in AIM V medium (Life Technologies) and incubated in flasks, in an incubator at 37° C. in the presence of 5% of CO2. After overnight incubation, the non-adherent cells were recovered and loaded onto an LS+column (Miltenyi), and the CD4+ T lymphocytes thus purified were then frozen. The adherent cells were incubated for 5 days in AIM V medium containing 1000 U/ml of GM-CSF and 1000 U/ml of IL-4, and the cells that had differentiated into dendritic cells were then cultured for 2 days in the presence of 1 μg/ml of LPS, 1000 U/ml of IL-4 and 1000 U/ml of GM-CSF, so as to induce their maturation.
The mature dendritic cells (100 000 cells/well) were then incubated with a mixture of peptides (10 μg of each peptide), for 5 hours at 37° C. The mature dendritic cells were subsequently washed and then incubated, in the presence of the CD4+ T lymphocytes (100 000 cells/well) thawed beforehand, in medium containing 1000 U/ml of IL-6 and 10 ng/ml of IL-12. After 7 days, the culture was restimulated a first time by means of mature dendritic cells that had been thawed and loaded with the mixture of peptides beforehand, in medium containing IL-2 (10 U/ml) and IL-7 (5 ng/ml). 7 days later, the culture was restimulated, in a similar manner, in a medium containing no IL-2. After two further stimulations, under the above conditions, the cells were assayed by ELISPOT, in the following way:
[…]. After washing with PBS buffer and then with PBS/0.05% Tween, 100 μl of biotin-conjugated anti-IFNγ secondary antibody (7-B6-1-biotin, Mabtech), diluted to 1 μg/ml in PBS containing 0.05% Tween 20 and 1% BSA, were added to each well. After incubation for one hour, the plates were washed again, and incubated with 100 μl/well of Extravidin-AKP (No. 2636, SIGMA), diluted to 1/5000 in PBS containing 0.05% Tween 20 and 1% BSA. The immunoenzymatic reaction was then visualized by means of the kit No. 170-6432 (Biorad).

Another test relates to DRB3. The experiment in a line: DRB3.
The test system of the next test is DR7. The experiment in a line: DR7.
A further test addresses HLA-DR7 (DRB1*0701) (Homo sapiens, UniProt P01903+P01911, A100R/A102G/A103Q/D57E/D86V/E43K/F76Y/K127E/L162R/M171V/P40G/Q125H/Q99D/R33Q/R42Y/R54Q/S133A/S66F/T210M/V115G/Y107V/Y59L/Y89S). Briefly: biochemical. The test is classed as binding. The settings on record: read-out: binds with good affinity to DR7.
The subject of a further test is DR3. Briefly: DR3. The text has this:
(§1) Table printed on a drawing sheet, Figure 2
Where the first naming reader finds the target: head: DR3

In a further test the test system is DR11. The experiment in a line: DR11.
Description: as §1
Where the first naming reader finds the target: head: DR11

A further test addresses T1, HLA-DR1 (DRB1*0101) (Homo sapiens, UniProt P01903+P01911, A100R/D57E/F55L/F60I/F76Y/I96L/L162R/M171V/P40L/Q125E/R42F/V115G/Y59C).
T1 construct: endogenous in cells; host or cells: homozygous EBV-transformed human B lymphocyte lines; immunopurified with antibody L243
Briefly: biochemical. It counts as binding. The settings on record: for IC50: DRB1*0101.

Another test deals with T2, HLA-DR15 (DRB1*1501) (Homo sapiens, UniProt P01903+P01911).
T2 construct: endogenous in cells; host or cells: homozygous EBV-transformed human B lymphocyte lines; immunopurified with antibody L243
Briefly: biochemical. The test is classed as binding. The following applies: DRB1*1501; read-out: binds with good affinity to DR15.

Another test deals with DRB5. Briefly: DRB5.
The next test addresses T3, HLA-DRB5 (DRB5*0101) (Homo sapiens, UniProt P01903+Q30154).
T3 construct: endogenous in cells; host or cells: homozygous EBV-transformed human B lymphocyte lines; immunopurified with antibody L243
Briefly: biochemical. The test is classed as binding. The following applies: read-out: binds with good affinity to DRB5.

The test system of a further test is DR4. Briefly: DR4.
In a further test the target is HLA-DP402 (DPB1*0402) (Homo sapiens, UniProt P04440+P20036, A65V/A84D/A85E/L207M). The experiment in a line: biochemical. The test is classed as binding. The settings on record: DP*0402; read-out: binds with good affinity to DP402.
The next test has as its target HLA-DR13 (DRB1*1301) (Homo sapiens, UniProt P01903+P01911, A100E/A169T/K41T/L162R/M171V/P40S/Q125H/Q178H/Q39Y/Q99D/R42S/S66N/T262R/W38E/Y61H). Briefly: biochemical. It counts as binding. The settings on record: read-out: binds with good affinity to DR13.
The next test relates to DR15. The experiment in a line: DR15.
The target in the next test is HLA-DR11 (DRB1*1101) (Homo sapiens, UniProt P01903+P01911, A100R/A169T/A87E/I96F/K41T/L162R/M171V/P40S/Q125H/Q178H/Q39Y/Q99D/R42S/S66Y/T262R/V115G/W38E). The experiment in a line: biochemical. It counts as binding. The following applies: read-out: binds with good affinity to DR11.
Another test deals with DP401. Briefly: DP401.
The next test relates to DR13. The experiment in a line: DR13.
Description: as §1
Where the first naming reader finds the target: head: DR13

The next test deals with DRB4. The experiment in a line: DRB4.
Description: as §1
Where the first naming reader finds the target: head: DRB4

The next test addresses T4, HLA-DRB4 (DRB4*0101) (Homo sapiens, UniProt P01903+P13762, G164S).
T4 construct: endogenous in cells; host or cells: homozygous EBV-transformed human B lymphocyte lines; immunopurified with antibody L243
Briefly: biochemical. The test is classed as binding. The following applies: read-out: binds with good affinity to DRB4.

Another test deals with DP402. The experiment in a line: DP402.
A further test concerns the target T5, HLA-DR3 (DRB1*0301) (Homo sapiens, UniProt P01903+P01911, A100K/A102G/A103R/A169T/F55Y/I96L/K41T/L162R/M171V/P40S/Q125H/Q178H/Q39Y/R42S/S66N/T106N/T262R/W38E/Y61H).
T5 construct: endogenous in cells; host or cells: homozygous EBV-transformed human B lymphocyte lines; immunopurified with antibody L243
The experiment in a line: biochemical. It counts as binding. The following applies: read-out: binds with good affinity to DR3.

Test [2] has as its system T lymphocytes derived from PBMCs from patients chronically infected with HCV. The test is classed as cell-based, human. The settings on record: supernatant 48 h, —: not detected.
The target of a further test is T6, HLA-DR4 (DRB1*0401) (Homo sapiens, UniProt P01903+P01911, A100K/A169T/F76Y/I96L/K127E/L162R/M171V/N62H/P40V/Q125Y/R42H/S133A/S149N/S66Y/V115G/V209L/W38E).
T6 construct: endogenous in cells; host or cells: homozygous EBV-transformed human B lymphocyte lines; immunopurified with antibody L243
The experiment in a line: biochemical. The test is classed as binding. The following applies: read-out: binds with good affinity to DR4.

Where [3] appears, read: read-out: binds with good affinity to DR1.

Sequence of HLA-DR11 (DRB1*1101) (P01903 26-254 limits assumed, other chains not shown): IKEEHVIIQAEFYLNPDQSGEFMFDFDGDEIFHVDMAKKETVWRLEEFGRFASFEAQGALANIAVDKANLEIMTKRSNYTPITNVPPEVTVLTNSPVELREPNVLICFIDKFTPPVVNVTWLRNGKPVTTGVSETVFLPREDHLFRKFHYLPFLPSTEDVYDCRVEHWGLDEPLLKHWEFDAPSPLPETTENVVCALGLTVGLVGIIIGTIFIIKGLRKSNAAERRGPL

Regarding RLRAYMNTPGLPVAQ [28N 1538-1552], in test [1], the “response of line P014/C (T lymphocytes secreting IFN-γ)” value was “responds”.

Regarding `CC[C@H](C)[C@H](NC(=O)[C@H](CCC(N)=O)NC(=O)CNC(=O)CNC(=O)CNC(=O)[C@@H]1CCCN1C(=O)[C@H](Cc1ccccc1)NC(=O)[C@H](CCCCN)NC(=O)[C@@H](NC(=O)[C@H](CC(=O)O)NC(=O)[C@H](CCC(N)=O)NC(=O)[C@@H]1CCCN1)C(C)C)C(=O)N[C@H](C(=O)NCC(=O)NCC(=O)N[C@H](C(=O)N[C@@H](Cc1ccc(O)cc1)C(=O)N[C@@H](CC(C)C)C(=O)N[C@@H](CC(C)C)C(=O)N1CCC[C@H]1C(=O)N[C@@H](CCCNC(=N)N)C(=O)N[C@@H](CCCNC(=N)N)C(=O)NCC(=O)N1CCC[C@H]1C(=O)N[C@@H](CCCNC(=N)N)C(=O)N[C@@H](CC(C)C)C(=O)NCC(=O)N[C@H](C(=O)N[C@@H](CCCNC(=N)N)C(=O)O)C(C)C)C(C)C)C(C)C` [1C 19-47], the IC50 is above 100 µM with DRB3; 0.483 µM with DR7; below 1 µM on HLA-DR7 (DRB1*0701); above 100 µM in the test with DR3; 0.058 µM in the test with DR11; below 1 µM on HLA-DR1 (DRB1*0101) (setting [3]). Moreover, the IC50 at HLA-DR15 (DRB1*1501) is below 1 µM; with DRB5, 0.009 µM; at HLA-DRB5 (DRB5*0101), below 1 µM; in the test on DR4 it was 70 µM; on HLA-DP402 (DPB1*0402) it was below 1 µM; at HLA-DR13 (DRB1*1301), below 1 µM. In addition, the IC50 in the test with DR15 is 0.158 µM; at HLA-DR11 (DRB1*1101), below 1 µM; with DP401 it was 4.52 µM; with DR13 it was 0.288 µM; in the test with DRB4, 6 µM.

Consider GIFRAAVCTRGVAKA [15N 1178-1192], for which, in [1] (line P014/A, FIG. 5A), the “response of line P014/A (T lymphocytes secreting IFN-γ)” value is given as “responds”. Further, in [1], the “response of line P014/C (T lymphocytes secreting IFN-γ)” value was “responds”.

For the compound `CC[C@H](C)[C@H](NC(=O)[C@H](CCC(=O)O)NC(=O)[C@H](CCCNC(=N)N)NC(=O)CN)C(=O)N[C@@H](CC(C)C)C(=O)N[C@@H](CC(C)C)C(=O)NCC(=O)N1CCC[C@H]1C(=O)N[C@@H](C)C(=O)N[C@@H](CC(=O)O)C(=O)NCC(=O)N[C@@H](CCSC)C(=O)N[C@H](C(=O)N[C@@H](CO)C(=O)N[C@@H](CCCCN)C(=O)NCC(=O)N[C@@H](Cc1c[nH]c2ccccc12)C(=O)N[C@@H](CCCNC(=N)N)C(=O)N[C@@H](CC(C)C)C(=O)N[C@@H](CC(C)C)C(=O)N[C@@H](C)C(=O)N1CCC[C@H]1C(=O)N[C@H](C(=O)N[C@H](C(=O)N[C@@H](C)C(=O)N[C@@H](Cc1ccc(O)cc1)C(=O)N[C@@H](C)C(=O)N[C@@H](CCC(N)=O)C(=O)N[C@@H](CCC(N)=O)C(=O)N[C@H](C(=O)N[C@@H](CCCNC(=N)N)C(=O)O)[C@@H](C)O)[C@@H](C)O)[C@@H](C)CC)C(C)C` [8N 1007-1037], the IC50 in the test on DRB3 was 15 µM; at HLA-DRB4 (DRB4*0101) it was below 1 µM; in the test with DR7, 0.088 µM; at HLA-DR7 (DRB1*0701) it was below 1 µM; with DR3, 0.2 µM; in the test with DR11 it was 0.001 µM. Moreover, the IC50 is 0.881 µM with DP402; 0.002 µM at HLA-DR1 (DRB1*0101) (competition with biotinylated tracer HA 306-318, read-out: IC50, binding to HLA-DR1); below 1 µM at HLA-DR1 (DRB1*0101) (setting [3]); below 1 µM at HLA-DR3 (DRB1*0301); below 1 µM on HLA-DR15 (DRB1*1501); 0.002 µM in the test on DRB5. The IC50 at HLA-DRB5 (DRB5*0101) is below 1 µM; on HLA-DP402 (DPB1*0402) it was below 1 µM; at HLA-DR13 (DRB1*1301) it was below 1 µM; in the test with DR15, 0.03 µM; at HLA-DR11 (DRB1*1101) it was below 1 µM; in the test on DP401, 7.21 µM. Also, the IC50 in the test on DRB4 is 0.06 µM; at HLA-DR4 (DRB1*0401), below 1 µM. For the same compound, on HLA-DR1 (DRB1*0101) (legend of FIG. 4), the “affinity for HLA-DR1 (in words)” value is on record as “high affinity”. Further, the IL10 in test [2] (patient 067) was 43 pg/mL; in test [2] (patient 078) it was 41 pg/mL.

As to VSKGWRLLAPITAYA [8N 1019-1033], the “response of line P014/B (T lymphocytes secreting IFN-γ)” value in [1] (line P014/B, FIG. 5B) is recorded as “responds”.
